The record followed here is patent US20110230478A1 (Bayer ScienceCrop AG, priority 2008, published 2011).

A short description of the first data set: logP by HPLC on reversed-phase columns (C 18), EEC Directive 79/831 Annex V.A8. Type of data set: physicochemical. To be noted: method marker [a].
On to `CC(=O)c1ccc(Nc2ncc(Cl)c(NC3CCCCC3)n2)cc1` [Example 266], for which the logP is 2.77[a].

The data set is the same for the next values; noted with them: method marker [a]; footnote not given.
In the case of `CC(C)N(C)c1nc(Nc2cccc(S(=O)(=O)N(C)C)c2)ncc1Cl` [Example 43], the logP was 2.96[a].

As to `CC(=O)c1cccc(Nc2ncc(Cl)c(NC(C)C)n2)c1.Cl` [Example 50], the logP is 1.79[a].

`COCCNc1nc(Nc2cccc(Cl)c2)ncc1Cl` [Example 2]: the logP was 2.13[a];.

Consider `CCC(CO)Nc1nc(Nc2cc(OC)cc(OC)c2)ncc1Cl` (stereo not shown) [Example 19], for which the logP is 1.64[a].

Regarding `COCCNc1nc(Nc2cccc(C(C)=O)c2)ncc1Cl` [Example 5], the logP was 1.49[a];.

`CCC(C)N(C)c1nc(Nc2cccc(C(C)=O)c2)ncc1Cl.Cl` (stereo not shown) [Example 41]: the logP is 2.88[a].

For `CSC[C@H](C)Nc1nc(Nc2ccc(S(=O)(=O)N(C)C)cc2)ncc1Cl` [Example 30], the logP was 2.59[a].

Turning to `CC(C)c1ccc(Nc2ncc(Cl)c(NCCO)n2)cc1.Cl` [Example 58], the logP was 1.6[a].

For the compound `CCC(C)N(C)c1nc(Nc2ccccc2)ncc1Cl` (stereo not shown) [Example 40], the logP is 2.85[a].

On to `COCCNc1nc(Nc2cc(OC)cc(OC)c2)ncc1Cl.Cl` [Example 62], for which the logP was 1.67[a];.

Regarding `COCC(C)Nc1nc(Nc2cccc(Cl)c2)ncc1Cl` (stereo not shown) [Example 10], the logP was 2.58[a].

Turning to `CC(C)Nc1nc(Nc2ccccc2)ncc1Cl` [Example 36], the logP was 1.77[a].

For the compound `CCC(CO)Nc1nc(Nc2ccccc2)ncc1Cl` (stereo not shown) [Example 18], the logP is 1.41[a].

Regarding `CN(C)c1nc(Nc2ccc(S(=O)(=O)N(C)C)cc2)ncc1Cl` [Example 27], the logP was 2.49[a].

`COCC(C)Nc1nc(Nc2cccc(S(=O)(=O)N(C)C)c2)ncc1Cl` (stereo not shown) [Example 31]: the logP was 2.02[a];.

The data set is the same for the next values; noted with them: method marker [b] (compound 257: pH2.7).
Take `CC(C)Nc1nc(Nc2cccc(CC#N)c2)ncc1Br` [Example 246]: the logP is 1.84[b].

Regarding `COc1cc(Nc2ncc(Cl)c(NC3CCCCC3)n2)cc(OC)c1` [Example 260], the logP is 2.77[b].

In the case of `CCC(C)CNc1nc(Nc2ccccc2)ncc1Cl` (stereo not shown) [Example 276], the logP was 2.37[b].

Turning to `CC(=O)c1cccc(Nc2ncc(Cl)c(NC3CCCCC3)n2)c1.Cl` [Example 249], the logP was 2.53[b].

Regarding `CC(C)Nc1nc(Nc2ccccc2)ncc1Br` [Example 247], the logP is 1.89[b].

For the compound `CC(C)Nc1nc(Nc2cccc(CS(=O)(=O)NC(C)c3ccccc3)c2)ncc1Cl` (stereo not shown) [Example 248], the logP was 2.32[b].

Turning to `CC(=O)Cc1cccc(Nc2ncc(Cl)c(NC3CCCC3)n2)c1` [Example 255], the logP was 2.01[b].

Take `CCCC(C)Nc1nc(Nc2ccccc2)ncc1Cl` (stereo not shown) [Example 274]: the logP was 2.41[b].

As to `COC(C)C(C)Nc1nc(Nc2ccccc2)ncc1Cl` (stereo not shown) [Example 295], the logP was 2.04[b].

Take `OCCNc1nc(Nc2ccccc2)ncc1Cl` [Example 285]: the logP was 0.7[b].

Staying with this data set, now noted: method marker [b]; footnote not given; compound 68 value matches logP (pH 2.3).
As to `COCC(C)Nc1nc(Nc2ccc(N(C)C(C)=O)cc2)ncc1Cl` (stereo not shown) [Example 99], the logP is 1.48[b].

Turning to `COCC(C)Nc1nc(Nc2ccc(F)cc2)ncc1Cl` (stereo not shown) [Example 69], the logP is 1.8[b].

For the compound `COCC(C)Nc1nc(Nc2ccc3oc(=O)sc3c2)ncc1Cl` (stereo not shown) [Example 106], the logP is 2.11[b].

For the compound `COCCNc1nc(Nc2cccc(Cl)c2)ncc1Cl` [Example 2], the logP is 2.13[b].

With `COCC(C)Nc1nc(Nc2ccc3c(c2)OC(F)(F)C(F)(F)O3)ncc1Br` (stereo not shown) [Example 75], the logP was 4.08[b].

Regarding `COCC(C)Nc1nc(Nc2ccc(OC(F)(F)F)c(Cl)c2)ncc1Br` (stereo not shown) [Example 118], the logP is 4.23[b].

For the compound `COCCNc1nc(Nc2cccc(C(C)=O)c2)ncc1Cl` [Example 5], the logP was 1.49[b].

As for `COCC(C)Nc1nc(Nc2cccc(SC)c2)ncc1Br` (stereo not shown) [Example 77], the logP is 2.3[b].

On to `COCC(C)Nc1nc(Nc2ccc3c(c2)CCN3C(C)=O)ncc1Cl` (stereo not shown) [Example 107], for which the logP was 1.48[b].

On to `COCC(C)Nc1nc(Nc2ccc(C(=O)OC)c(Cl)c2)ncc1Br` (stereo not shown) [Example 115], for which the logP was 3.14[b].

As to `COCC(C)Nc1nc(Nc2ccc(C(=O)OC)c(Cl)c2)ncc1Cl` (stereo not shown) [Example 95], the logP was 2.95[b].

`COCC(C)Nc1nc(Nc2ccc(OC)c(OC)c2)ncc1Cl` (stereo not shown) [Example 84]: the logP was 1.46[b].

For `COCCNc1nc(Nc2cc(OC)cc(OC)c2)ncc1Cl.Cl` [Example 62], the logP is 1.67[b].

`COCC(C)Nc1nc(Nc2cccc(OC)c2)ncc1Cl` (stereo not shown) [Example 85]: the logP was 1.78[b].

Take `COCC(C)Nc1nc(Nc2cccc(NC(C)=O)c2)ncc1Br` (stereo not shown) [Example 80]: the logP is 1.11[b].

For the compound `CSCCNc1nc(Nc2ccccc2)ncc1C#N` [Example 67], the logP was 2.6[b].

In the case of `COCC(C)Nc1nc(Nc2ccc(C(=O)CC#N)cc2)ncc1Cl` (stereo not shown) [Example 102], the logP was 2.09[b].

Consider `COCC(C)Nc1nc(Nc2cccc(S(=O)(=O)N(C)C)c2)ncc1Cl` (stereo not shown) [Example 31], for which the logP was 2.18[b].

The data set is the same for the next values; noted with them: method marker [c].
As for `CC(C)Nc1nc(Nc2cccc(CC#N)c2)ncc1Br` [Example 246], the logP was 3.13[c];.

Turning to `CC(C)Nc1nc(Nc2ccccc2)ncc1Br` [Example 247], the logP is 3.7[c];.

With `CC(C)Nc1nc(Nc2cccc(CS(=O)(=O)NC(C)c3ccccc3)c2)ncc1Cl` (stereo not shown) [Example 248], the logP is 3.57[c];.

With `COC(C)C(C)Nc1nc(Nc2ccccc2)ncc1Cl` (stereo not shown) [Example 295], the logP is 3.64[c];.

With `OCCNc1nc(Nc2ccccc2)ncc1Cl` [Example 285], the logP is 1.83[c];.

Still in this data set, the particulars now being: pH 2.3, logP [a].
Take `COCC(C)Nc1nc(Cl)ncc1Br` (stereo not shown) [Example V-2, 5-bromo-2-chloro-N-(3-methoxypropan-2-yl)pyrimidine-4-amine]: the chromatographic logP came out at 2.26.

The same data set, now with this note: reversed-phase HPLC column (C 18), pH 2.3, method marker [b]; footnote not given; compound 68 value matches logP (pH 2.3); read-out: logP.
As for `CCCNc1nc(Nc2ccccc2)ncc1C#N` [Example 68, 2-(Phenylamino)-4-(propylamino)pyrimidine-5-carbonitrile], the chromatographic logP was 2.68.

The same data set, now with this note: reversed-phase HPLC column (C 18), pH 2.3, pH 2.3, 0.1% aqueous phosphoric acid and acetonitrile; read-out: logP [a].
As for `CC(C)CN(C)c1nc(Cl)ncc1Cl` [Example V-26, 2,5-dichloro-N-methyl-N-(2-methylpropyl)pyrimidine-4-amine], the chromatographic logP was determined as 3.78.

On to `CCCCNc1nc(Cl)ncc1Cl` [Example V-16, N-(butan-1-yl)-2,5-dichloropyrimidine-4-amine], for which the chromatographic logP came out at 2.91.

For the compound `CCCNc1nc(Nc2ccccc2)ncc1C#N` [Example 68, 2-(Phenylamino)-4-(propylamino)pyrimidine-5-carbonitrile], the chromatographic logP is 2.68.

`CC(C)CNc1nc(Cl)ncc1Cl` [Example V-29, 2,5-dichloro-N-(2-methylpropyl)pyrimidine-4-amine]: the chromatographic logP worked out at 2.93.

Turning to `CCC(C)CNc1nc(Cl)ncc1Cl` (stereo not shown) [Example V-24, 2,5-dichloro-N-(2-methylbutyl)pyrimidine-4-amine], the chromatographic logP amounted to 3.42.

Take `CCCCCNc1nc(Cl)ncc1Cl` [Example V-31, 2,5-dichloro-N-(pentyl)pyrimidine-4-amine]: the chromatographic logP amounted to 3.51.

Take `CCCC(C)Nc1nc(Cl)ncc1Cl` (stereo not shown) [Example V-27, 2,5-dichloro-N-(pent-2-yl)pyrimidine-4-amine]: the chromatographic logP is 3.47.

Regarding `CC(C)N(C)S(=O)(=O)Cc1cccc(N)c1` [IV-6, 1-(3-aminophenyl)-N-methyl-N-(propan-2-yl)methanesulphonamide], the chromatographic logP is 1.08.

Take `CSCC(C)Nc1nc(Cl)ncc1Cl` (stereo not shown) [Example V-6, 2,5-dichloro-N-[1-(methylsulphanyl)propan-2-yl]pyrimidine-4-amine]: the chromatographic logP was 2.73.

Staying with this data set, now noted: values marked [a]; pH 2.3.
Consider `CCC(COC)N(C)c1nc(Nc2ccccc2)ncc1Br` (stereo not shown) [Example 232], for which the logP was 2.23[a].

The data set is the same for the next values; noted with them: values marked [b]; footnote not given.
`COCC(C)Nc1nc(Nc2cccc(C(=O)NC(C)(C)C)c2)ncc1Cl` (stereo not shown) [Example 157]: the logP is 1.99[b].

Turning to `CC(C)Nc1nc(Nc2ccc3[nH]c(=O)oc3c2)ncc1Cl` [Example 205], the logP was 1.44[b].

On to `COc1cc(Nc2ncc(Cl)c(NC(C)C)n2)ccc1NC(C)=O` [Example 181], for which the logP was 1.44[b].

Regarding `CC(=O)N1CCc2ccc(Nc3ncc(Cl)c(NC(C)C)n3)cc21` [Example 206], the logP was 1.61[b].

Turning to `CC(C)Nc1nc(Nc2cccc(CS(=O)(=O)N(C)C(C)C)c2)ncc1Cl` [Example 242], the logP was 2.18[b].

For the compound `CCOC(=O)Nc1ccc(Nc2ncc(Cl)c(NC(C)C)n2)cc1` [Example 202], the logP is 1.66[b].

On to `COCC(C)Nc1nc(Nc2cccc(NC(=O)C(C)(C)C)c2)ncc1Cl` (stereo not shown) [Example 147], for which the logP is 1.9[b].

As to `COCC(C)Nc1nc(Nc2ccc(O)c(F)c2)ncc1Cl` (stereo not shown) [Example 160], the logP was 1.34[b].

With `COCC(C)Nc1nc(Nc2ccc(C)c(SC)c2)ncc1Cl` (stereo not shown) [Example 154], the logP was 2.33[b].

`CNC(=O)c1ccc(Nc2ncc(Br)c(NC(C)COC)n2)cc1` (racemic) [Example 127]: the logP is 1.46[b].

As to `COCC(C)Nc1nc(Nc2cccc(NC(=O)C(C)(C)CF)c2)ncc1Cl` (stereo not shown) [Example 166], the logP is 1.83[b].

With `CNc1nc(Nc2cccc(CC#N)c2)ncc1Cl` [Example 235], the logP was 1.1[b].

`COCC(Nc1nc(Nc2ccccc2)ncc1Br)C(C)C` (stereo not shown) [Example 224]: the logP is 2.55[b].

Consider `CC(C)Nc1nc(Nc2ccc(C#N)cc2)ncc1Cl` [Example 184], for which the logP is 2.46[b].

For the compound `CCNc1nc(Nc2ccccc2)ncc1Cl` [Example 240], the logP is 1.38[b].

Regarding `COC(=O)Nc1cccc(Nc2ncc(Cl)c(NC(C)C)n2)c1` [Example 204], the logP was 1.59[b].

`CNC(=O)c1cccc(Nc2ncc(Cl)c(NC(C)COC)n2)c1` (racemic) [Example 142]: the logP is 1.32[b].

With `COCC(C)Nc1nc(Nc2cccc(NC(=O)C(C)C)c2)ncc1Cl` (stereo not shown) [Example 156], the logP is 1.68[b].

Regarding `COCC(C)Nc1nc(Nc2ccc(SC)cc2)ncc1Cl` (stereo not shown) [Example 149], the logP is 2.06[b].

For `FC(F)(F)OCCNc1nc(Nc2ccccc2)ncc1Cl` [Example 177], the logP is 2.26[b].

Take `Cc1cccc(Nc2ncc(Cl)c(NC(C)C)n2)c1` [Example 229]: the logP is 2[b].

Still in this data set, the particulars now being: values marked [c]; footnote not given.
As for `CC(C)Nc1nc(Nc2cccc(CS(=O)(=O)N(C)C(C)C)c2)ncc1Cl` [Example 242], the logP is 3.44[c];.

As to `CCNc1nc(Nc2ccccc2)ncc1Cl` [Example 240], the logP was 3.03[c];.

Consider `Cc1cccc(Nc2ncc(Cl)c(NC(C)C)n2)c1` [Example 229], for which the logP is 3.84[c];.
